Assay results published in article PMC9023544, “Ketone-selenoesters as potential anticancer and multidrug resistance modulation agents in 2D and 3D ovarian and breast cancer in vitro models” (Scientific Reports, 2022).

Assays:
Format in all cases: cell-based, human
[1] = system: HOC/ADR spheroids; test: Sensitization of resistant 3D spheroids to Adriamycin; conditions: Adriamycin IC50 / Adriamycin + selenoester IC50; K3 3 µM, K4 5 µM, K7 5 µM; 72 h
Method: (§1) In the previous section, the cytotoxic activity of selenoesters was determined against several 3D models of sensitive and resistant cell lines. Subsequently, the selenoesters were tested for their potential to sensitize the drug-resistant HOC/ADR and MCF-7/PAX spheroids. Mature 72 h old spheroids were incubated with the non-toxic concentration of selenoesters with Adriamycin or paclitaxel (concentration range 0.6–80 µM) for HOC/ADR or MCF-7/PAX, respectively (Table 8). After another 72 h incubation, the sensitization rate (fold change) was evaluated. […] The highest sensitization rate of ovarian spheroids (HOC/ADR) was induced by 5 µM K4, followed by 5 µM K7, and 3 µM K3.
(§2) To determine the sensitization potential of compounds, HOC/ADR and MCF-7/PAX were seeded into the ultra-low attachment 96-well plates (Sigma-Aldrich) at a cell density 0.5 × 10^5 cells/mL. After 3 days of spheroid formation, spheroids were carefully washed once with PBS and fresh DMEM medium (99 µL) containing the appropriate concentration of compounds K3, K4, K7 was added. Using a binary serial compound dilution, the concentration range of both cytostatics was prepared in the new 96-well plates (0.06–8 mM). After 1 µL transfer of cytostatics into the corresponding cell line, the final concentration range were 0.6–80 µM. The required volume of DMSO (1% V/V) was added to the positive control. After an incubation of 72 h, 100 µL of CellTiter-Glo 3D Reagent (Promega) was added to each well. Plates with spheroids were incubated for 25 min at room temperature. Afterwards, the luminescent signal was recorded.

[2] = system: MCF-7/PAX spheroids; test: Sensitization of resistant 3D spheroids to paclitaxel; conditions: paclitaxel IC50 / paclitaxel + selenoester IC50; K3 3 µM, K4 3 µM, K7 5 µM; 72 h
Method: as §1, §2

[3] = system: HOC; test: Oxidation stress (ROS), Muse Oxidative Stress Kit; conditions: 1 µM (DMSO 5% V/V), 24 h
Method: Selenoesters (K3, K4, K7) were tested for their ability to generate reactive oxygen species (ROS). HOC was exposed to selenoesters in concentration of 1 µM for 24 h. DMSO (5% V/V) was used as a positive control. The required volume of DMSO (1% V/V) was added to untreated cells. ROS are essential biomolecules in cellular regulation as a part of the defence mechanisms. On the other hand, their participation in cell signalling may affect apoptosis and other death pathways. In the assay, dihydroethidium (DHE) reacts with superoxide anions by forming DNA-binding fluorophore ethidium bromide. Based on fluorescence, the cell population can be distinguished into ROS negative and ROS positive cells containing oxygen radicals.
To determine the oxidation stress potential of selected selenoesters, HOC were seeded into 24-well plates at a density 2 × 10^5 cells/mL for 24 h according to the above mentioned procedure. Afterwards, the plates were washed 1 ×with PBS and fresh DMEM medium containing compounds K3, K4, K7 (final concentration—1 µM) was added for 24 h, except for the positive and negative control. […] as the oxidation stress inductor. After incubation, the cells were washed 1× with PBS and released from the surface by using a trypsin–EDTA solution. After trypsin inhibition by medium addition, the cell suspensions were centrifuged (100×g, 5 min, 25 °C), supernatants were removed, and cell pellets resuspended in 1× assay buffer. All reagents were prepared immediately before use. Afterwards, 10 µL of the cell suspension were mixed with 190 µL of working solution (Muse Oxidative stress reagent) and stained for 30 min at 37 °C. Subsequently, the […] were analysed by Guava Muse Cell Analyzer. Oxidation stress detection was performed following the instructions provided by the manufacturer.

| SMILES | HOC/ADR Fold change (3D) [1] | MCF-7/PAX Fold change (3D) [2] | ROS(+) cells [3] [%] | ROS(−) cells [3] [%] |
| --- | --- | --- | --- | --- |
| CC(=O)C[Se]C(=O)c1ccc(Br)cc1 [K3] | (1.2 ± 0.2)× | (0.9 ± 0.0)× | 29.1 ± 4.2 | 70.8 ± 4.2 |
| CC(=O)C[Se]C(=O)c1ccccc1C(F)(F)F [K4] | (2.3 ± 0.1)× | (1.0 ± 0.1)× | 14.5 ± 1.5 | 85.5 ± 1.6 |
| CC(=O)C[Se]C(=O)c1ccc(C(C)(C)C)cc1 [K7] | (1.6 ± 0.1)× | (1.1 ± 0.1)× | 22.3 ± 0.4 | 77.7 ± 0.4 |
